This is an account of results in patent US20120022121A1, “INDOLES, DERIVATIVES AND ANALOGS THEREOF AND USES THEREFOR” (priority 2007, published 2012).

Data set [1] has as its system CV-1. In words: Cell viability SRB assay, 96 h. The data set is classed as cell-based. The conditions noted are these: Cercopithecidae, CV-1 fibroblast cell line. As for the experimental part:
Cells were plated in 96-well plates at a density of 800-5,000 cells/well, depending on the cell line, in their required growth media containing 10% fetal bovine serum. Preliminary studies were performed with each cell line using a variety of cell densities and incubation times to determine appropriate seeding densities. The compound of interest was dissolved in DMSO, diluted in cell culture medium (final DMSO concentration was less than 0.5% v/v), and added to quadruplicate wells at final concentrations ranging from 0 to 100 μM. Control wells to which only drug-free vehicle was added were included as negative controls.
Cells were incubated for 96 hour at 37° C. in a humidified atmosphere containing 5% carbon dioxide.
Background: In SRB staining, fixed cells bind dye roughly in proportion to their protein.

Data set [2] has as its system Bcl-2. In words: Western blot of anti- and pro-apoptosis proteins. The conditions noted are these: LNCaP and PC-3, increasing concentration, 24 h. The data set is classed as cell-based, human. Here is the method:
(§1) Cell viability (LNCaP, PC-3 prostate, DU145, PPC-1, and TSU-Pr1 prostate cancer cell lines, HT-29 colon cancer cell line, and MCF-7 breast cancer cell line) was quantitated using the sulforhodamine B (SRB) assay after 96 h coincubation with different concentrations of compound in 96-well plates. Cell viability of leukemia cells (K562 and doxorubicin-resistant K562/Dox) was quantitated by MTT assay after 96 h coincubation with different concentrations of compound in 96-well plates. Drug-induced apoptosis was determined by anti-histone ELISA assay and DNA laddering. Cell cycle progression was assessed by propidium iodide staining and fluorescence-activated cell sorting (FACS) analysis. In vitro tubulin polymerization assay was determined by CytoDYNAMIX ScreenTM3 (CDS-03) kits according to the manufacturer's instructions. Anti-apoptosis protein (Bcl-2 and Bcl-xl) and pro-apoptosis protein (Bax) were examined in LNCaP and PC-3 after 24 h incubation with different concentrations of compound 13 by Western blot assay. In vivo PC-3 xenograft studies were conducted by i.v. dosing of 50 mg/kg, 100 mg/kg and 150 mg/kg for 2 weeks.
(§2) 100 nM of compound 13 was incubated with LNCaP for 24 h and PC-3 for 48 h. […] The results are expressed as enrichment factor (Enrichment factor=OD of treated cells/OD from control cells). […]
(Immunoblotting shows a protein as a band on a membrane.)

Data set [3] deals with LNCaP and PC-3 cells. The data set is described as follows: Anti-histone ELISA for apoptosis. In kind it is cell-based, human. Particulars: 100 nM; LNCaP 24 h, PC-3 48 h. Here is the method:
as §1, §2
In general terms: In an ELISA, binding on a coated surface is turned into a signal by an enzyme label.

Data set [4] relates to MCF-7. In words: Cell viability SRB assay, 96 h. The data set is classed as cell-based. The conditions noted are these: Homo sapiens, MCF7; MCF-7, 96 h. Put shortly: (§3)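 Viability is measured with the sulforhodamine B assay following 96 h coincubation with compound at 37° C. Quadruplicate wells receive 0 to 100 μM final; drug-free vehicle wells serve as negative controls.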

Data set [5] relates to HT-29. The data set is described as follows: Cell viability SRB assay, 96 h. The data set is classed as cell-based. The conditions noted are these: Homo sapiens, HT-29, 96 h. In a few lines:
as §3

Data set [6] has as its system PC-3 xenograft. In words: Antitumor activity in PC-3 xenograft. The data set is classed as in vivo, Balb/c mice. The conditions noted are these: 50, 100, or 150 mg/kg/d, 5 days on/2 days off. Here is the method:
PC-3 tumor cells (2×10^6 cells) were suspended in saline and injected S.C. in both flanks of recipient mice (n=15). Tumor size was measured every other day and volume calculated as V=π/6*(length)x(width)^2 (75). […] Tumor growth and body weight was monitored every other day for the remainder of the study.

For data set [7], the system named is MES-SA. In words: Growth inhibition assay (96 h). The data set is classed as cell-based. The conditions noted are these: Homo sapiens, MES-SA (parental). The source says:
(§4) MTT (3-(4,5-dimethylthiazol-2-yl)-2,5-diphenyltetrazolium bromide) assay was also used for the leukemia cell lines. […] Cells were stained with SRB solution or MTT solution.

Data set [8] has as its system HEK293-pcDNA3-10. In words: Growth inhibition assay (96 h). In kind it is cell-based, human. The conditions noted are these: Homo sapiens, HEK293-pcDNA3-10 (control for BCRP).
From the text: as §4

Data set [9] concerns HEK293-482R2. In words: Growth inhibition assay (96 h). In kind it is cell-based, human.
The subject of data set [10] is MDR cell lines with high levels of P-gp, MRP1, MRP2, or BCRP. The data set is described as follows: Cytotoxicity assay using MDR cell lines. In kind it is cell-based, human. The conditions noted are these: MRP1, MRP2, BCRP over-expressing cells.
From the text: as §4
Since ABC transporters are thought to be one of the major causes of MDR of anticancer drugs, the antitumoral efficacy of 68 was compared with other anticancer drugs in a cytotoxicity assay using MDR cell lines with high levels of P-gp, MRP1, MRP2, or BCRP (Table 1). […] In contrast, the cytotoxicity efficacy of 68 against cancer cells was unaltered by the MDR phenotypes.

The term IC50 denotes the concentration that gives 50% inhibition. `O=C(c1cccc(-c2cc3ccccc3[nH]2)c1)c1cc2ccccc2[nH]1` [Compound 13, (1H-indol-2-yl)-[3-(1H-indol-2-yl)phenyl]methanone]: the IC50 in data set [1] is 78.3 ± 35 nM; in data set [4], 162 nM; in data set [5] it was 62 nM. In addition, in data set [2], the “Bcl-2 level by Western blot” value is recorded as “decreased”. In data set [3], the “apoptosis by anti-histone ELISA” value is reported as “detected apoptosis”. In addition, the tumor growth entry in data set [6] is on record as “suppressed tumor growth in a dose-dependent manner”.

In the case of `COc1cc(C(=O)c2cccc(-c3cc4ccccc4[nH]3)c2)cc(OC)c1OC` [Compound 68, [3-(1H-Indol-2-yl)-phenyl]-(3,4,5-trimethoxy-phenyl)-methanone], the IC50 came to 31.5 ± 2.9 nM in [7]; 13.5 ± 1.6 nM in [8]; 13.6 ± 1.3 nM in data set [9] (Homo sapiens, HEK293-482R2, BCRP over-expressed, 96 h). The “resistance factor (ratio of IC50 resistant subline to parental cell line)” value in data set [9] (HEK293-482R2 (BCRP) vs HEK293-pcDNA3-10) was “(1.0)”. For the same molecule, the “cytotoxicity efficacy against cancer cells with MDR phenotypes” value in [10] is recorded as “unaltered”.
